Experimental data published in patent US6673834B2, “Hydroperylene derivatives” (priority 2001, dated 2004).
Like-named read-outs stand apart in the source and are kept apart here.

Legend:
thrombocytes = test: Test for inhibition of thrombocyte aggregation (turbidimetric, Born; aggregometer PAP 4); assay type: cell-based; details: read-out: IC50 (platelet aggregation)
Source text: The inhibition of platelet aggregation can be measured, inter alia, by determining platelet aggregation turbimetrically as described by Born (Born, GV, Nature, 1962,194: 927-929).
(§1) Principle of the test: the method is based on the property that the optical density of a particle suspension depends on the […]. After a platelet suspension has been stimulated, the platelets begin to aggregate. This leads to the appearance of relatively large platelet aggregates and to an increase in light transmission. This increase is registered photometrically, and recorded in curve form, continuously. The degrees to which the thrombocytes can be aggregated, or to which this aggregation can be inhibited, can be deduced from the changes in light transmission. The method of staining cells with calcein was used for determining cytotoxicity (Hollo Z et al., Biochim Biophys Acta 11;1191(2):384-8, 1994). Living cells incorporate the substrate calcein acetoxymethyl ester (C-AM), which is hydrolyzed in the cells by nonspecific esterases. […] In the living cell, it is converted into the fluorescent hydrolysis product and the vitality of the cells can be measured on the basis of the fluorescence (λex:485 nm/λem:538 nm).
By way of example, Table 2 summarizes the inhibitory effects of some hydroperylene derivatives as IC50 values. The IC50 value indicates the concentration which inhibits thrombocyte aggregation by 50% under defined conditions.
Test for Inhibition of Thrombocyte Aggregation
The assay was carried out as follows:
Final concentration of activator: 0.05 U of thrombin/ml or 1 μg of collagen/ml
Aggregation in Aggregometer (PAP 4)
Cell number, 3×10^5 thrombocytes/μl
The blank value for the channels of the aggregometer is first of all adjusted using buffer. The thrombocytes are then pipetted into microtubes and, after the thrombocytes have been added, heated at 37° C. for a few minutes in the aggregometer. After a magnetic stirrer has been added to each reaction tube, the substances, and CaCl2, are added and a start is made in recording the course of the curve in the aggregometer. After 2 minutes of incubation, the activator, or buffer in the case of the control, is added. The course of the curve is then recorded for a further 6 min at 37° C. and at a stirrer speed of 1050 revolutions per minute.

cells = test: Cytotoxicity by staining cells with calcein (calcein AM fluorescence); assay type: cell-based; details: read-out: IC50 (toxicity)
Source text: as §1

[1] = Solubility of thioperylenol; assay type: physicochemical
Source text: (§2) The physicochemical and spectroscopic properties of thioperylenol can be summarized as follows:
(§3) Brownish crystals which are soluble in medium-polar and polar organic solvents and soluble in aqueous neutral buffers. Stable in neutral and mildly acidic, non-oxidizing medium but unstable in strongly acidic and strongly alkaline solution.

[2] = Stability of thioperylenol in solution; assay type: physicochemical
Source text: as §2, §3

[3] = concentration which inhibits thrombocyte aggregation by 50%, activator 0.05 U of thrombin/ml or 1 μg of collagen/ml, 37° C.
[4] = cell toxicity, calcein AM staining

Molecule | IC50 (thrombocytes; [3]) | IC50 (cells; [4]) | further results
Altertoxin III | 6.1 µM | 20 µM | 
O=C1CCC2(O)c3c(ccc(O)c31)-c1ccc(O)c3c1C2C1OC1C3=O (centres unmarked) [Altertoxin II] | 2.6 µM | 10 µM | 
O=C1C[C@@H](O)[C@H]2c3c(ccc(O)c31)-c1ccc(O)c3c1[C@]2(O)C=CC3=O (stereo in doubt) [Alterperylenol] |  |  | IC50 (thrombocytes; Platelet): 1.6 µM; IC50 (cells): > 100 µM
O=C1C[C@H](O)[C@@H]2c3c(ccc(O)c31)-c1ccc(O)c3c1[C@@]2(O)CCC3=O [Altertoxin I] | 29 µM | > 100 µM | 
O=C1CC(SCC(O)C(=O)O)[C@]2(O)c3c(ccc(O)c31)-c1ccc(O)c3c1C2C1OC1C3O (some centres unmarked) [Thioperylenol, thioperylenol] |  | 61 µM | Solubility ([1]; aqueous neutral buffers): soluble; Solubility ([1]; medium-polar and polar organic solvents): soluble; Stability ([2]; neutral and mildly acidic, non-oxidizing medium): Stable; Stability ([2]; strongly acidic and strongly alkaline solution): unstable; IC50 (thrombocytes; Platelet, concentration which inhibits thrombocyte aggregation by 50%, activator 0.05 U of thrombin/ml or 1 μg of collagen/ml, 37° C.): 7.2 µM
